Assays:
[1] = Stability of alkylated amino acid in cleaning composition 1 by HPLC-UV peak area vs t=0; type: physicochemical; conditions: HPLC-UV peak area relative to t=0; for % at t = 4 w (70° F.): 4 weeks; for % at t = 4 w (70° F.) / % at t = 8 w (70° F.): 70° F. (21° C.); for % at t = 8 w (70° F.) / % at t = 8 w (100° F.): 8 weeks; for % at t = 8 w (100° F.): 100° F. (38° C.)
Method: The cleaning compositions were prepared using the formulation previously described herein as cleaning composition 1, where each tested cleaning composition was comprised of the following: 0.3 wt % alkylated amino acid, 1 wt % surfactant (lauryl amine oxide), 0.5 wt % fragrance (butyl levulinate), and balance water (about 98.2 wt % water).
The stability tests were tested for amino acid stability at different temperatures, 70° F. (21° C.) and 100° F. (38° C.), over the following periods of time: 4 weeks (4w) and 8 weeks (8w). The samples tested were subjected to HPLC-UV analysis, and the peak areas of the plotted data corresponding to the alkylated amino acids in the samples at 4w and 8w were compared with the reference (sample at t=0) to obtain a percentage value (based upon measured area at different times divided by measured area of reference, t=0).
Percentage values of 70% or greater indicate adequate stability of the alkylated amino acids within the cleaning compositions over the 4 and 8 week time periods and at the given temperatures, where increasing percentage values (e.g., above 85%, 90% or even at or greater than 100%) indicate very stable cleaning compositions with little or no degradation of the alkylated amino acids within the compositions.

Staphylococcus aureus = test: GST (germicidal spray test) AOAC 961.02 micro-efficacy of cleaning compositions; type: cell-based; conditions: 0.3 wt % alkylated amino acid, balance water, pH about 7, contact time 7 minutes; for GST efficacy in Cleaning Composition 1: 1 wt % lauryl amine oxide, 0.5 wt % butyl levulinate; for GST efficacy in Cleaning Composition 3: 1 wt % alkyl polyglucoside
Method: A number of tests were conducted for Cleaning Compositions 1-3 including different alkylated amino acids as set forth in Tables 1 and 2 as described herein. Tests were conducted using GST (germicidal spray test) testing method AOAC 961.02 for micro-efficacy (i.e., ability to kill bacteria) against Staphylococcus aureus. The contact time in the test method was 7 minutes, and the neutralizer utilized was Letheen Broth+0.07% Lecithin+0.5% Tween 80.

SMILES	% at t = 4 w (70° F.) [1] [%]	% at t = 8 w (70° F.) [1] [%]	% at t = 8 w (100° F.) [1] [%]	GST efficacy in Cleaning Composition 1 (Staphylococcus aureus) [%]	GST efficacy in Cleaning Composition 2 (Staphylococcus aureus) [%]	GST efficacy in Cleaning Composition 3 (Staphylococcus aureus) [%]
CCCCCCCCCCCCNC(CCCNC(=N)N)C(=O)O (stereo not shown) [Example 2]	100	100	100	>99.999	>99.999	–
CCCCCCCCCCCCNC(CCCCN)C(=O)O (stereo not shown) [Example 17]	90	102	102	>99.999	>99.999	–
CCCCCCCCCCCCNC(Cc1c[nH]c2ccccc12)C(=O)OCC (stereo not shown) [Example 96]	94	87	35	99.999	–	–
CCCCCCCCCCCCNC(=O)C(N)CCCCN (stereo not shown) [Example 20]	97	89	62	>99.999	>99.999	–
CCCCCCCCCCCCOC(=O)C(N)Cc1ccc(O)cc1 (stereo not shown) [Example 93]	75	56	8	>99.999	99.9	99.4
CCCCCCCCCCCCNC(=O)C(N)Cc1ccc(O)cc1 (stereo not shown) [Example 94]	98	94	86	>99.999	–	>99.999
CCCCCCCCCCCCNC(=O)CN [Example 62]	90	87	59	>99.999	–	>99.999
CCCCCCCCCCCCNC(=O)C(N)Cc1ccccc1 (stereo not shown) [Example 90]	104	101	96	>99.999	–	>99.999
CCCCCCCCCCCCNC(=O)C(N)Cc1c[nH]c2ccccc12 (stereo not shown) [Example 98]	118	135	121	>99.999	–	99.4
CCCCCCCCCCCC(=O)NCCCCC(N)C(=O)OCC (stereo not shown) [Example 21]	13	4	0	>99.999	>99.999	–
CCCCCCCCCCCC(=O)NC(CCCCN)C(=O)OCC (stereo not shown) [Example 16]	88	79	37	>99.999	>99.999	–
CCCCCCCCCCCCNC(Cc1ccc(O)cc1)C(=O)OCC (stereo not shown) [Example 92]	99	59	57	99.99	–	–
CCCCCCCCCCCCNC(Cc1ccccc1)C(=O)OCC (stereo not shown) [Example 88]	93	91	74	99.999	–	–
CCCCCCCCCCCCNC(=O)C(C)CC(C)C (stereo not shown) [Example 82]	90	100	93	>99.999	–	>99.999
CCCCCCCCCCCCOC(=O)C(N)CC(C)C (stereo not shown) [Example 81]	64	36	5	>99.999	95.3	>99.8
CCCCCCCCCCCCNC(CC(C)C)C(=O)OCC (stereo not shown) [Example 80]	93	85	89	99.99	99.4	–
CCCCCCCCCCCCOC(=O)C(N)Cc1c[nH]c2ccccc12 (stereo not shown) [Example 97]	92	73	6	>99.999	–	–
CCCCCCCCCCCCNC(CCCNC(=N)N)C(=O)OCC (stereo not shown) [Example 5]	–	–	–	>99.999	>99.999	–
CCCCCCCCCCCCNCCCCC(N)C(=O)O (stereo not shown) [Example 22]	100	150	146	>99.999	>99.999	–
CCCCCCCCCCCCNCC(=O)OCC [Example 60]	8	0	0	>99.999	–	–
CCCCCCCCCCCC(=O)NC(CCCNC(=N)N)C(=O)OCC (stereo not shown) [Example 1]	80	71	27	>99.999	>99.999	–
CCCCCCCCCCCCOC(=O)C(N)Cc1ccccc1 (stereo not shown) [Example 89]	82	63	12	99.999	99.5	99.6
CCCCCCCCCCCCNC(=O)C(N)CCCNC(=N)N (stereo not shown) [Example 4]	106	112	81	>99.999	>99.999	–
CCCCCCCCCCCCOC(=O)CN [Example 61]	0	0	0	>99.999	–	>99.8
